Test results reported in patent US9079866B2, “Flap modulators” (JANSSEN PHARMACEUTICA NV, priority 2013, dated 2015).
Where a name gives a salt, the structure may show the parent alone.

Each compound was assayed against human FLAP (Homo sapiens (Human), UniProt P20292) (assay: FLAP binding assay (HTRF format)). Details: read-out: FLAP Binding wild type HTRF Ki.
Method in brief: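 Samples were run in duplicate on each of two plates and the plate results averaged. Read-out is the HTRF signal ratio.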

human FLAP, sequence (P20292 whole entry): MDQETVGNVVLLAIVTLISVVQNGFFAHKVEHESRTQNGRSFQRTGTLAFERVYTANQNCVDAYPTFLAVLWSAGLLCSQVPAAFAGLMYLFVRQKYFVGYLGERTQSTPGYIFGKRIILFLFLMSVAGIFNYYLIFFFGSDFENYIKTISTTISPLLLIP

Row | Structure (SMILES) | Ki [nM]
1 | Nc1ncc(-c2ccc(-c3cccnc3S(=O)(=O)C3CCNC3)cc2F)cn1 (stereo not shown) [Example 804, 5-(2-Fluoro-4-(2-(pyrrolidin-3-ylsulfonyl)pyridin-3-yl)phenyl)pyrimidin-2-amine formic acid salt] | 636
2 | Nc1ncc(-c2ccc(-c3cccnc3S(=O)(=O)C3CCNCC3)cc2F)cn1 [Example 827, 5-{2-Fluoro-4-[2-(piperidin-4-ylsulfonyl)pyridin-3-yl]phenyl}pyrimidin-2-amine formic acid salt] | > 10000

Same assay, conditions: wild type FLAP, HTRF format

Row | Structure (SMILES) | Ki [nM]
3 | CC(C)(C(N)=O)S(=O)(=O)c1ccccc1-c1ccc(-c2cnc(N)nc2)c(F)c1 [Example 733, 2-{[4′-(2-Aminopyrimidin-5-yl)-3′-fluorobiphenyl-2-yl]sulfonyl}-2-methylpropanamide] | > 10000
4 | CC(C)(CN)S(=O)(=O)c1ccccc1-c1ccc(-c2cnc(N)nc2)c(F)c1 [Example 734, 5-{2′-[(2-Amino-1,1-dimethylethyl)sulfonyl]-3-fluorobiphenyl-4-yl}pyrimidin-2-amine] | > 10000
5 | NCC1(S(=O)(=O)c2ccccc2-c2ccc(-c3cnc(N)nc3)c(F)c2)CCCC1 [Example 740, 5-(2′-{[1-(Aminomethyl)cyclopentyl]sulfonyl}-3-fluorobiphenyl-4-yl)pyrimidin-2-amine] | > 10000
6 | CC(C)(C)NS(=O)(=O)c1ccccc1-c1ccc(-c2cnc(NS(C)(=O)=O)cn2)c(F)c1 [Example 748, N-(tert-Butyl)-3′-fluoro-4′-(5-(methylsulfonamido)pyrazin-2-yl)-[1,1′-biphenyl]-2-sulfonamide] | > 10000
7 | Nc1cnc(-c2ccc(-c3ccccc3C(=O)NC3CCOCC3)cc2F)cn1 [Example 756, 4′-(5-Aminopyrazin-2-yl)-3′-fluoro-N-(tetrahydro-2H-pyran-4-yl)biphenyl-2-carboxamide] | > 10000
8 | Nc1ncc(-c2ccc(-c3ccccc3C(=O)NCCO)cc2F)cn1 [Example 761, 4′-(2-Aminopyrimidin-5-yl)-3′-fluoro-N-(2-hydroxyethyl)biphenyl-2-carboxamide] | > 10000
9 | Nc1ncc(-c2ccc(-c3ccccc3C(=O)N3CCC[C@@H](O)C3)cc2F)cn1 [Example 764, (3R)-1-{[4′-(2-Aminopyrimidin-5-yl)-3′-fluorobiphenyl-2-yl]carbonyl}piperidin-3-ol] | > 10000
10 | Nc1ncc(-c2ccc(-c3ccccc3C(=O)N3CCC[C@H](O)C3)cc2F)cn1 [Example 767, (3S)-1-{[4′-(2-Aminopyrimidin-5-yl)-3′-fluorobiphenyl-2-yl]carbonyl}piperidin-3-ol] | > 10000
11 | Nc1cnc(-c2ccc(-c3ccccc3C(=O)N3CC[C@@H](O)C3)cc2F)cn1 [Example 769, (3R)-1-{[4′-(5-Aminopyrazin-2-yl)-3′-fluorobiphenyl-2-yl]carbonyl}pyrrolidin-3-ol] | 1540
12 | Nc1ncc(-c2ccc(-c3ccccc3C(=O)N3CC[C@@H](O)C3)cc2F)cn1 [Example 770, (3R)-1-{[4′-(2-Aminopyrimidin-5-yl)-3′-fluorobiphenyl-2-yl]carbonyl}pyrrolidin-3-ol] | > 10000
13 | Nc1cnc(-c2ccc(-c3ccccc3C(=O)N3CC[C@H](O)C3)cc2F)cn1 [Example 771, (3S)-1-{[4′-(5-Aminopyrazin-2-yl)-3′-fluorobiphenyl-2-yl]carbonyl}pyrrolidin-3-ol] | > 10000
14 | Nc1ncc(-c2ccc(-c3ccccc3C(=O)N3CC[C@H](O)C3)cc2F)cn1 [Example 772, (3S)-1-{[4′-(2-Aminopyrimidin-5-yl)-3′-fluorobiphenyl-2-yl]carbonyl}pyrrolidin-3-ol] | > 10000
15 | C[C@H]1COCCN1C(=O)c1ccccc1-c1ccc(-c2cnc(N)nc2)c(F)c1 [Example 778, 5-(3-Fluoro-2′-{[(3S)-3-methylmorpholin-4-yl]carbonyl}biphenyl-4-yl)pyrimidin-2-amine] | > 10000
16 | C[C@@H]1COCCN1C(=O)c1ccccc1-c1ccc(-c2cnc(N)nc2)c(F)c1 [Example 779, 5-(3-Fluoro-2′-{[(3R)-3-methylmorpholin-4-yl]carbonyl}biphenyl-4-yl)pyrimidin-2-amine] | ~2490
17 | Nc1ncc(-c2ccc(-c3cccnc3C(=O)N3CCOCC3)cc2F)cn1 [Example 782, 5-{2-Fluoro-4-[2-(morpholin-4-ylcarbonyl)pyridin-3-yl]phenyl}pyrimidin-2-amine] | > 10000
18 | Nc1cnc(-c2ccc(-c3cccnc3C(=O)N3CCOCC3)cc2F)cn1 [Example 783, 5-{2-Fluoro-4-[2-(morpholin-4-ylcarbonyl)pyridin-3-yl]phenyl}pyrazin-2-amine] | > 10000
19 | Nc1ncc(-c2ccc(-c3ccccc3C(=O)N3CC(O)C3)cc2F)cn1 [Example 791, [2-[4-(2-Aminopyrimidin-5-yl)-3-fluoro-phenyl]phenyl]-(3-hydroxyazetidin-1-yl)methanone] | > 10000
20 | CNC1CCN(C(=O)c2ccccc2-c2ccc(-c3cnc(N)nc3)c(F)c2)CC1 [Example 792, [2-[4-(2-Aminopyrimidin-5-yl)-3-fluoro-phenyl]phenyl]-[4-(methylamino)-1-piperidyl]methanone] | > 10000
21 | Nc1ncc(-c2ccc(-c3ccccc3C(=O)NC3CCOCC3)cc2F)cn1 [Example 797, 2-[4-(2-Aminopyrimidin-5-yl)-3-fluoro-phenyl]-N-tetrahydropyran-4-yl-benzamide] | > 10000
22 | CC(C)(C)C(=O)Nc1ncccc1-c1ccc(-c2cnc(N)nc2)c(F)c1 [Example 800, N-{3-[4-(2-Aminopyrimidin-5-yl)-3-fluorophenyl]pyridin-2-yl}-2,2-dimethylpropanamide] | > 10000
23 | CC(C)(C)C(=O)Nc1ncccc1-c1ccc(-c2cnc(N)cn2)c(F)c1 [Example 801, N-{3-[4-(5-Aminopyrazin-2-yl)-3-fluorophenyl]pyridin-2-yl}-2,2-dimethylpropanamide] | > 10000
24 | Nc1ncc(-c2ccc(-c3cccnc3S(=O)(=O)CCN3CCOCC3)cc2F)cn1 [Example 821, 5-(2-Fluoro-4-(2-((2-morpholinoethyl)sulfonyl)pyridine-3-yl)phenyl)pyrimidin-2-amine formic acid salt] | > 10000
25 | Nc1cnc(-c2ccc(-c3cc(C(F)(F)F)ccc3-c3cnc(N)nc3)cc2F)cn1 [Example 845, 5-[4′-(5-Aminopyrazin-2-yl)-3′-fluoro-5-(trifluoromethyl)biphenyl-2-yl]pyrimidin-2-amine] | > 10000
26 | Nc1ncc(-c2ccc(-c3ccccc3-c3cnc(N)nc3)cn2)cn1 [Example 855, 5-{5-[2-(2-Aminopyrimidin-5-yl)phenyl]pyridin-2-yl}pyrimidin-2-amine] | > 10000

The remaining lines, values ahead:

Row | Ki [nM] | Structure (SMILES)
27 | 781 | Nc1ncc(-c2ccc(-c3ccccc3S(=O)(=O)CC3CC3)cc2F)cn1 [Example 728, 5-{2′-[(Cyclopropylmethyl)sulfonyl]-3-fluorobiphenyl-4-yl}pyrimidin-2-amine]
28 | 557 | CC(C)(C#N)S(=O)(=O)c1ccccc1-c1ccc(-c2cnc(N)nc2)c(F)c1 [Example 732, 2-{[4′-(2-Aminopyrimidin-5-yl)-3′-fluorobiphenyl-2-yl]sulfonyl}-2-methylpropanenitrile]
29 | 984 | CC(C)(CN)S(=O)(=O)c1ccccc1-c1ccc(-c2cnc(N)cn2)c(F)c1 [Example 737, 5-{2′-[(2-Amino-1,1-dimethylethyl)sulfonyl]-3-fluorobiphenyl-4-yl}pyrazin-2-amine]
30 | 1160 | CS(=O)(=O)Cc1ccccc1-c1ccc(-c2cnc(N)cn2)c(F)c1 [Example 750, 5-{3-Fluoro-2′-[(methylsulfonyl)methyl]biphenyl-4-yl}pyrazin-2-amine]
31 | 940 | Nc1cnc(-c2ccc(-c3ccccc3C(=O)N3CC(O)C3)cc2F)cn1 [Example 755, 1-{[4′-(5-Aminopyrazin-2-yl)-3′-fluorobiphenyl-2-yl]carbonyl}azetidin-3-ol]
32 | 573 | Nc1cnc(-c2ccc(-c3ccccc3C(=O)N3CCC[C@H](O)C3)cc2F)cn1 [Example 768, (3S)-1-{[4′-(5-Aminopyrazin-2-yl)-3′-fluorobiphenyl-2-yl]carbonyl}piperidin-3-ol]
33 | 730 | O=C(c1ncccc1-c1ccc(-c2cnc3[nH]ccc3c2)c(F)c1)N1CCOCC1 [Example 781, 5-{2-Fluoro-4-[2-(morpholin-4-ylcarbonyl)pyridin-3-yl]phenyl}-1H-pyrrolo[2,3-b]pyridine]
34 | 391 | Nc1ncc(-c2ccc(-c3ccc(C(F)(F)F)cc3C(=O)N3CCC(O)CC3)cc2F)cn1 [Example 796, [2-[4-(2-Aminopyrimidin-5-yl)-3-fluoro-phenyl]-5-(trifluoromethyl)phenyl]-(4-hydroxy-1-piperidyl)methanone]
35 | 463 | COCCCS(=O)(=O)c1ncccc1-c1ccc(-c2cnc(N)nc2)c(F)c1 [Example 817, 5-(2-Fluoro-4-(2-((3-methoxypropyl)sulfonyl)pyridine-3-yl)phenyl)pyrimidin-2-amine hydrogen chloride salt]
36 | 1310 | Nc1cnc(-c2ccc(-c3cccnc3S(=O)(=O)C3CCNCC3)cc2F)cn1 [Example 832, 5-{2-Fluoro-4-[2-(piperidin-4-ylsulfonyl)pyridin-3-yl]phenyl}pyrazin-2-amine hydrochloride]
37 | ~500 | Nc1cnc(-c2ccc(-c3ccccc3)c(F)c2F)cn1 [Example 833, 5-(2,3-Difluorobiphenyl-4-yl)pyrazin-2-amine]
38 | 1280 | Nc1ncc(-c2ccccc2-c2cnc(-c3cnc(N)nc3)c(F)c2)cn1 [Example 854, 5-{2-[6-(2-Aminopyrimidin-5-yl)-5-fluoropyridin-3-yl]phenyl}pyrimidin-2-amine]
39 | ~1250 | Nc1cnc(-c2ccc(-c3cccnc3N3CCCC3)cc2F)cn1 [Example 859, 5-[2-Fluoro-4-(2-pyrrolidin-1-ylpyridin-3-yl)phenyl]pyrazin-2-amine]
40 | ~1480 | Nc1cnc(-c2ccc(-c3ccccc3N3CCCC3=O)cc2F)cn1 [Example 860, 1-[4′-(5-Aminopyrazin-2-yl)-3′-fluorobiphenyl-2-yl]pyrrolidin-2-one]
